From publication PMC6145176 (Bioorganic & medicinal chemistry, 2017)
Read-outs that look alike come from different tables or passages of the source. Marks after values point to notes of the source that are not given here.

Assays:
HIV-1Ba-L = assay: MAGI-CCR5 antiviral assay; type: cell-based; conditions: for IC50: concentration that reduces viral replication by 50%; for IC90: read-out: MAGI-CCR5 IC90, concentration that reduces viral replication by 90%
MAGI-CCR5 cells = assay: MAGI-CCR5 parallel cytotoxicity testing; type: cell-based; conditions: for MAGI-CCR5 TC50: uninfected MAGI-CCR5 cells, 48 h, MTS, concentration that reduces cell viability by 50%; for TC50 (NL4-3 row) / TC50 (A17 row): MAGI-CCR5 cells; for TC50 (NL4-3 row): printed in the NL4-3 line of Tables 7 and 10; for TC50 (A17 row): printed in the A17 line of Table 10
PBMCs = assay: PBMC cytotoxicity; type: cell-based, human; conditions: six days, MTS, concentration that reduces cell viability by 50%
[1] = Parallel artificial membrane permeation assay; conditions: for Papp at 100 μM: PAMPA, pH 7.2
[2] = Plasma stability in vitro assay; type: in vitro ADME; conditions: percent remaining after incubation for 60 min. at 37 °C, heparinized rat plasma
[3] = Microsomal stability in vitro assay; type: in vitro ADME; conditions: percent remaining after incubation for 60 min. at 37 °C, rat liver microsomes
[4] = target: HIV-1 reverse transcriptase (RT) (Human immunodeficiency virus type 1 group M subtype B, UniProt P04585); assay: RT biochemical assay; conditions: 10 nM HIV-1 RT, 37 °C, 1 h
HIV wildtype (NL4-3) = assay: MAGI-CCR5 antiviral assay, HIV wildtype; type: cell-based; conditions: HIV wildtype (NL4-3) in MAGI-CCR5 cells; for IC50: read-out: IC50, virus NL4-3; for IC90: read-out: IC90, virus NL4-3
[5] = read-out: MAGI-CCR5 IC50, HIV-1Ba-L in MAGI-CCR5 cells, 48 h
[6] = HIV-1Ba-L in MAGI-CCR5 cells, 48 h
[7] = Human immunodeficiency virus 1, MAGI-CCR5, 48 h, read-out: MAGI-CCR5 IC50, HIV-1Ba-L in MAGI-CCR5 cells, 48 h

4-(2-(6-Methyl-2-oxo-4-(pyridin-2-yl)-1,2,3,4-tetrahydropyrimidin-5-yl)thiazol-4-yl)benzonitrile [1x]
IC50 (HIV-1Ba-L; [5]): 2 ± 0.5 µM
IC90 (HIV-1Ba-L; [6]): > 100 µM
MAGI-CCR5 TC50 (MAGI-CCR5 cells): >100.00 µM
PBMC TC50 (PBMCs): >100.00 µM

CC1=C(c2nc(-c3ccc(C#N)cc3)cs2)[C@@H](c2cccc(O)c2)NC(=O)N1 [(R)-1i]
PBMC TC50 (PBMCs): >100 µM

4-(2-(6-Methyl-2-oxo-4-(quinolin-2-yl)-1,2,3,4-tetrahydropyrimidin-5-yl)thiazol-4-yl)benzonitrile [1aa]
IC50 (HIV-1Ba-L; [5]): 3.8 ± 1 µM
IC90 (HIV-1Ba-L; [6]): 98.3 ± 1.7 µM
MAGI-CCR5 TC50 (MAGI-CCR5 cells): >100.00 µM
PBMC TC50 (PBMCs): 68.3 ± 22.1 µM

CC1=C(c2nc(-c3ccc(C#N)cc3)cs2)C(c2ccc(Oc3ccccc3)cc2)NC(=O)N1 (stereo not shown) [1p, 4-(2-(6-Methyl-2-oxo-4-(4-phenoxyphenyl)-1,2,3,4-tetrahydropyrimidin-5-yl)thiazol-4-yl)benzonitrile]
IC50 (HIV-1Ba-L; [7]): < 0.15 µM

CC1=C(c2nc(-c3ccc(C#N)cc3)cs2)C(c2ccc(O)cc2)NC(=O)N1 (stereo not shown) [1l, 4-(2-(4-(4-Hydroxyphenyl)-6-methyl-2-oxo-1,2,3,4-tetrahydropyrimidin-5-yl)thiazol-4-yl)benzonitrile]
TC50 (NL4-3 row) (MAGI-CCR5 cells): 46 ± 6.1 µM
Papp at 100 μM [1]: 0.0151 ×10⁻⁶ cm/s

CC1=C(c2nc(-c3ccc(C#N)cc3)cs2)C(c2ccc(F)nc2)NC(=O)N1 (stereo not shown) [1ae, 4-(2-(4-(6-Fluoropyridin-3-yl)-6-methyl-2-oxo-1,2,3,4-tetrahydropyrimidin-5-yl)thiazol-4-yl)benzonitrile]
TC50 (NL4-3 row) (MAGI-CCR5 cells): >100 µM
Papp at 100 μM [1]: 0.575 ×10⁻⁶ cm/s

CC1=C(c2nc(-c3ccc(C#N)cc3)cs2)C(c2ccc(C(F)(F)F)nc2)NC(=O)N1 (stereo not shown) [1ar, 4-(2-(6-Methyl-2-oxo-4-(6-(trifluoromethyl)pyridin-3-yl)-1,2,3,4-tetrahydropyrimidin-5-yl)thiazol-4-yl)benzonitrile]
TC50 (NL4-3 row) (MAGI-CCR5 cells): >100 µM

4-(2-(6-Methyl-2-oxo-4-(pyridin-4-yl)-1,2,3,4-tetrahydropyrimidin-5-yl)thiazol-4-yl)benzonitrile [1z]
IC50 (HIV-1Ba-L; [5]): 1.4 ± 0.4 µM
IC90 (HIV-1Ba-L; [6]): > 100 µM
MAGI-CCR5 TC50 (MAGI-CCR5 cells): >100.00 µM
PBMC TC50 (PBMCs): >100.00 µM

COc1ccc(C2NC(=O)NC(C)=C2c2nc(-c3ccc(C#N)cc3)cs2)cc1 (stereo not shown) [1m, 4-(2-(4-(4-Methoxyphenyl)-6-methyl-2-oxo-1,2,3,4-tetrahydropyrimidin-5-yl)thiazol-4-yl)benzonitrile]
IC50 (HIV-1Ba-L; [7]): < 0.15 µM
TC50 (NL4-3 row) (MAGI-CCR5 cells): 5.5 ± 1.0 µM
Papp at 100 μM [1]: 0.0776 ×10⁻⁶ cm/s

COc1ccc(-c2csc(C3=C(C)NC(=O)NC3c3cccc(O)c3)n2)cc1 (stereo not shown) [1b]
PBMC TC50 (PBMCs): 91 ^e μM

CC1=C(c2nc(-c3ccc(C#N)cc3)cs2)C(c2ccc(Cl)nc2)NC(=O)N1 (stereo not shown) [1ai, 4-(2-(4-(6-Chloropyridin-3-yl)-6-methyl-2-oxo-1,2,3,4-tetrahydropyrimidin-5-yl)thiazol-4-yl)benzonitrile]
Papp at 100 μM [1]: 0.0398 ×10⁻⁶ cm/s

4-(2-(6-Methyl-2-oxo-4-(pyridin-3-yl)-1,2,3,4-tetrahydropyrimidin-5-yl)thiazol-4-yl)benzonitrile [1y]
IC50 (HIV-1Ba-L; [5]): 2.9 ± 0.1 µM
IC90 (HIV-1Ba-L; [6]): > 100 µM
MAGI-CCR5 TC50 (MAGI-CCR5 cells): >100.00 µM
PBMC TC50 (PBMCs): >100.00 µM
Plasma Stability (%) [2]: 89.42 ± 2.93%
Microsomal Stability (%) [3]: 75.55 ± 7.86%
PAMPA (LogPe) ([1]; polar brain lipid membrane, predicts BBB permeability): −7.50 ± 0.10

CC1=C(c2nc(-c3ccc(C#N)cc3)cs2)C(c2cc3ccccc3n2C)NC(=O)N1 (stereo not shown) [1ad, 4-(2-(6-Methyl-4-(1-methyl-1H-indol-2-yl)-2-oxo-1,2,3,4-tetrahydropyrimidin-5-yl)thiazol-4-yl)benzonitrile]
IC50 (HIV-1Ba-L; [7]): 0.74 µM
TC50 (A17 row) (MAGI-CCR5 cells): >100 µM
TC50 (NL4-3 row) (MAGI-CCR5 cells): >100 µM
Papp at 100 μM [1]: 0.0891 ×10⁻⁶ cm/s

CC1=C(c2nc(-c3ccc(C#N)cc3)cs2)[C@H](c2cccc(O)c2)NC(=O)N1 [(S)-1i]
PBMC TC50 (PBMCs): >100 µM
RT biochemical IC50 (μM) ± SD [4]: Not active

CC1=C(c2nc(-c3ccc(C#N)cc3)cs2)C(c2ccc(Br)nc2)NC(=O)N1 (stereo not shown) [1am, 4-(2-(4-(6-Bromopyridin-3-yl)-6-methyl-2-oxo-1,2,3,4-tetrahydropyrimidin-5-yl)thiazol-4-yl)benzonitrile]
TC50 (NL4-3 row) (MAGI-CCR5 cells): >100 µM
Papp at 100 μM [1]: 0.0151 ×10⁻⁶ cm/s

CC1=C(c2nc(-c3ccc(C#N)cc3)cs2)C(c2ccc(OCc3ccccc3)cc2)NC(=O)N1 (stereo not shown) [1q, 4-(2-(4-(4-(Benzyloxy)phenyl)-6-methyl-2-oxo-1,2,3,4-tetrahydropyrimidin-5-yl)thiazol-4-yl)benzonitrile]
IC50 (HIV-1Ba-L; [7]): < 0.15 µM

4-(2-(6-Methyl-2-oxo-4-(quinolin-4-yl)-1,2,3,4-tetrahydropyrimidin-5-yl)thiazol-4-yl)benzonitrile [1ab]
IC50 (HIV-1Ba-L; [5]): 1.5 ± 0.3 µM
IC90 (HIV-1Ba-L; [6]): 12.7 ± 3.6 µM
MAGI-CCR5 TC50 (MAGI-CCR5 cells): >100.00 µM
PBMC TC50 (PBMCs): >100.00 µM

Cc1ccnc2c1NC(=O)c1cccnc1N2C1CC1 [NVP, nevirapine, reference compound]
IC50 (HIV wildtype (NL4-3)): 0.07 ± 0.03 µM
IC90 (HIV wildtype (NL4-3)): 0.6 ± 0.07 µM

CC1=C(c2nc(-c3ccc(C#N)cc3)cs2)C(c2cccc(O)c2)NC(=O)N1 (stereo not shown) [1i, 4-(2-(4-(3-Hydroxyphenyl)-6-methyl-2-oxo-1,2,3,4-tetrahydropyrimidin-5-yl)thiazol-4-yl)benzonitrile]
PBMC TC50 (PBMCs): 84 ± 8.2 µM
Papp at 100 μM [1]: 0.0145 ×10⁻⁶ cm/s

3-Methyl-4-(2-(6-methyl-4-(1-methyl-1H-indol-2-yl)-2-oxo-1,2,3,4-tetrahydropyrimidin-5-yl)thiazol-4-yl)benzonitrile [1at]
IC50 (HIV-1Ba-L; [5]): 0.39 ± 0.05 µM
IC90 (HIV-1Ba-L; [6]): 1.9 ± 0.3 µM
TC50 (A17 row) (MAGI-CCR5 cells): >100 µM
TC50 (NL4-3 row) (MAGI-CCR5 cells): >100 µM
MAGI-CCR5 TC50 (MAGI-CCR5 cells): >100 µM
PBMC TC50 (PBMCs): >100 ^d μM
IC50 (HIV wildtype (NL4-3)): 0.39 ± 0.05 µM
IC90 (HIV wildtype (NL4-3)): 4.8 ± 0.6 µM

COc1ccc(C2NC(=O)NC(C)=C2c2nc(-c3ccc(C#N)cc3)cs2)cn1 (stereo not shown) [1an, 4-(2-(4-(6-Methoxypyridin-3-yl)-6-methyl-2-oxo-1,2,3,4-tetrahydropyrimidin-5-yl)thiazol-4-yl)benzonitrile]
TC50 (NL4-3 row) (MAGI-CCR5 cells): >100 µM
Papp at 100 μM [1]: 0.0562 ×10⁻⁶ cm/s
